In PMC12114510, “Antimicrobial, Antioxidant, and α-Glucosidase-Inhibitory Activities of Prenylated p-Hydroxybenzoic Acid Derivatives from Oberonia ensiformis” (Molecules, 2025):
Counter-ions that a name gives are not always drawn.

Tests used:
α-glucosidase = experiment: α-Glucosidase inhibition assay (PNPG method); format: biochemical; conditions: for IC50, inhibition of α-glucosidase: mean ± SD, PNPG method, 5 and 6 tested as epimeric mixtures
Protocol: The inhibitory activity of the obtained compounds on α-glucosidase was evaluated using the method mentioned in previous studies with minor modifications. […] Subsequently, 50 μL of 5.0 mM p-Nitrophenyl α-D-glucopyranoside (pNPG, dissolved in 0.1 M PB, pH 6.8) was added to the mixture. After incubation at 37 °C for 30 min, the reaction was stopped by adding 80 μL of 0.2 M sodium carbonate solution (dissolved in ultrapure water) to the reaction system. The absorbance value was measured at 405 nm using a microplate reader. […] Ac: Absorbance of the reaction system containing 20 μL PBS, 50 μL α-glucosidase, and 50 μL pNPG.

[1] = DPPH radical scavenging (antioxidant) assay; conditions: for IC50, clearance rate of DPPH: mean ± SD, 5 and 6 tested as epimeric mixtures
Protocol: The activity screening of 18 compounds isolated from O. ensiformis was carried out using 96-well plates and an enzyme labeler with DPPH methanol solution as substrate (0.15 mmol/L) and sodium ascorbate as positive control. The gradient mass concentration of the samples to be tested was 200, 100, 50, 25, 12.5 μg/mL and then divided into a sample group (100 μL DPPH solution + 100 μL sample, A), a sample control group (100 μL methanol + 100 μL sample, A0), and a negative control (100 μL DPPH solution + 100 μL methanol, A1). The samples to be tested were fully reacted under light-avoiding conditions, and the OD values were determined at 517 nm after 30 min [23]. The experiments were performed three times in parallel, and the DPPH radical scavenging rate was calculated. The scavenging rate of DPPH radical was calculated according to the following equation [24].E = [1 − (A − Aa)/Ab] × 100% A:100 μL of test compounds or L-Ascorbic Acid Sodium Salt and 100 μL of DPPH. Aa: 100 μL of test compounds or L-Ascorbic Acid Sodium Salt and 100 μL of MeOH. Ab: 100 μL of MeOH and 100 μL of DPPH.

| SMILES | inhibitory activity against α-glucosidase (in words) (α-glucosidase) | DPPH radical scavenging activity [1] | IC50, clearance rate of DPPH [1] | IC50, inhibition of α-glucosidase (α-glucosidase) |
| --- | --- | --- | --- | --- |
| CC(C)(O)CCc1cc(C(=O)O)cc2c1OC(C)(C)C=C2 [Compound 16, 1iparacids C] | no significant activity |  |  |  |
| C=C(C)C(O)Cc1cc(C(=O)O[C@@H]2CC(C(=O)O)=C[C@@H](O)[C@H]2O)cc(CC=C(C)C)c1O (some centres unmarked) [Compound 6, oberoniaensiformisin F] | moderate | > 50% | 173.76 ± 23.92 µg/mL | 58.07 ± 6.22 µg/mL |
| C=C(C)C(O)Cc1cc(C(=O)O)cc2c1OC(C)(C)C=C2 (centres unmarked) [Compound 10, liparacid A] | no significant activity |  |  |  |
| CC(C)(O)CCc1cc(C(=O)O)cc(CCC(C)(C)O)c1O [Compound 17, oberoniamyosurusin F] | no significant activity |  |  |  |
| C=C(C)C(O)Cc1cc(C(=O)O)cc(CC(O)C(=C)C)c1O (centres unmarked) [Compound 18, liparacid B] | no significant activity |  |  |  |
| CC(C)=CCc1cc(C(=O)O[C@@H]2CC(C(=O)O)=C[C@@H](O)[C@H]2O)cc2c1OC(C)(C)C=C2 [Compound 13, oberoniamyosurusin L] | moderate |  |  | 86.53 ± 1.08 µg/mL |
| CC(C)=CCc1cc(C(=O)O)cc(CC=C(C)C)c1O [Compound 12, nervogenic acid] | strong | > 50% | 185.36 ± 1.96 µg/mL | 34.03 ± 0.16 µg/mL |
| O=C1O[C@H]([C@@H](O)CO)C(O)=C1O [L-ascorbate, L-Ascorbic Acid Sodium Salt, reference compound] |  |  | 2.37 ± 0.11 µg/mL |  |
| CC(C)=CCc1cc(C(=O)O)cc2c1OC(C(C)(C)O)C2 (centres unmarked) [Compound 15, oberoniamyosurusins I] | strong |  |  | 38.80 ± 4.43 µg/mL |
| C=C(C)C(O)Cc1cc(C(=O)OC(C)C(C)(O)C(=O)O)cc(CC=C(C)C)c1O (centres unmarked) [Compound 5, Oberoniaensiformisin E] | weak |  |  | 106.10 ± 2.12 µg/mL |
| C=C(C)C(O)Cc1cc(C(=O)O)cc(CCC(C)(C)O)c1O (centres unmarked) [Compound 11, oberoniamyosurusin E] | no significant activity |  |  |  |
